From patent publication US11147272B2, “Pyridone compounds and agricultural and horticultural fungicides comprising the same as active ingredients” (MITSUI CHEMICALS AGRO, INC., priority 2017, dated 2021)
Like-named read-outs stand apart in the source and are kept apart here.

Key:
Alternaia brassicicola = assay: Test Example C: Alternaria sooty spot on cabbage; assay type: in vivo
Text: Seeds of a test plant (cabbage variety: Shikidori) were planted and cultivated until the cotyledons extended.
<Control Value> Control value=100{1−(n/3)}

[1] = test system: Blumeria graminis f. sp. hordei; assay: Test Example D: Powdery mildew on barley; conditions: for pest or weed control at 250 ppm: read-out: Test D control value; for Test D control value class: class of control value
Phytophthora infestans = assay: whole plant or invertebrate; assay type: in vivo; conditions: for pest or weed control at 250 ppm: read-out: Test F control value; for Test F control value class: class of control value
Botrytis cinerea = assay: Test Example B: Gray mold on tomato; conditions: for pest or weed control at 250 ppm: read-out: Test B control value; for Test B control value class: class of control value
Puccinia recondita = assay: Test Example E: Brown rust on wheat; assay type: in vivo
Plasmopara viticola = assay: Test Example G: Downy mildew on vine; conditions: for pest or weed control at 250 ppm: Plasmopara viticola, topical; for Test G control value class: Downy mildew on vine (Neomuscat), 2.5 ml/pot, assessed 7 to 10 days after inoculation; for Test G control value: 7 to 10 days after inoculation
[2] = test system: Colletotrichum orbiculare; assay: Test Example H: Anthracnose on cucumber; conditions: for pest or weed control at 250 ppm: Colletotrichum orbiculare, in Cucumis sativus, topical; for Test H control value class: Anthracnose on cucumber (Sagami Hanjiro), 2.5 ml/pot, assessed 6 to 10 days after inoculation; for Test H control value: 6 to 10 days after inoculation
Magnaporthe grisea = assay: whole plant or invertebrate; assay type: in vivo; conditions: for pest or weed control at 250 ppm: read-out: Test A control value; for Test A control value class: class of control value
[3] = topical, 250 ppm drug solution sprayed on test plant
[4] = Blumeria graminis, in Hordeum vulgare, topical
[5] = Phytophthora infestans, in Solanum lycopersicum, topical
[6] = Botrytis cinerea, in Solanum lycopersicum, topical
[7] = Puccinia recondita, topical, 250 ppm drug solution sprayed on test plant
[8] = 168 h, read-out: Test G control value
[9] = 144 h, read-out: Test H control value
[10] = Pyricularia oryzae, in Oryza sativa
[11] = Alternaria sooty spot on cabbage, class of control value
[12] = Brown rust on wheat, class of control value
[13] = 250 ppm drug solution sprayed on test plant
[14] = 250 ppm drug solution sprayed (2.5 ml/pot), grape Neomuscat
[15] = 250 ppm drug solution sprayed (2.5 ml/pot), cucumber Sagami Hanjiro
[16] = Alternaria sooty spot on cabbage, control value class
[17] = Powdery mildew on barley, control value class
[18] = Late blight on tomato, control value class
[19] = Gray mold on tomato, control value class
[20] = Brown rust on wheat, control value class
[21] = Downy mildew on vine, 250 ppm spray
[22] = Anthracnose on cucumber, 250 ppm spray
[23] = Blast on rice, control value class

CCn1c(-c2c(F)cc(OC)cc2F)c(C(OC)C(F)(F)F)cc(Cl)c1=O (centres unmarked) [Compound No. 518, 3-chloro-6-(2,6-difluoro-4-methoxyphenyl)-1-ethyl-5-(2,2,2-trifluoro-1-methoxyethyl)pyridin-2(1H)-one]
pest or weed control at 250 ppm (Alternaia brassicicola; [3]): > 50%
pest or weed control at 250 ppm [1, 4]: > 50%
pest or weed control at 250 ppm (Phytophthora infestans; [5]): < 50%
pest or weed control at 250 ppm (Botrytis cinerea; [6]): > 50%
pest or weed control at 250 ppm (Puccinia recondita; [7]): > 50%
pest or weed control at 250 ppm (Plasmopara viticola; [8]): < 50%
pest or weed control at 250 ppm [2, 9]: > 50%
pest or weed control at 250 ppm (Magnaporthe grisea; [10]): > 50%

CCn1c(-c2c(F)cc(F)cc2F)c(C(OC)C(F)(F)F)cc(Cl)c1=O (centres unmarked) [Compound No. 516, 3-Chloro-1-ethyl-5-(2,2,2-trifluoro-1-methoxyethyl)-6-(2,4,6-trifluorophenyl)pyridin-2(1H)-one]
pest or weed control at 250 ppm (Alternaia brassicicola; [3]): > 50%
pest or weed control at 250 ppm [1, 4]: > 50%
pest or weed control at 250 ppm (Phytophthora infestans; [5]): < 50%
pest or weed control at 250 ppm (Botrytis cinerea; [6]): > 50%
pest or weed control at 250 ppm (Puccinia recondita; [7]): > 50%
pest or weed control at 250 ppm (Plasmopara viticola; [8]): > 50%
pest or weed control at 250 ppm [2, 9]: > 50%
pest or weed control at 250 ppm (Magnaporthe grisea; [10]): > 50%

CCn1c(-c2ccc(F)cc2Cl)c(CC(C)C)cc(Br)c1=O [compound 100]
Test C control value class (Alternaia brassicicola; [11]): H (more than 50% control value)
Test D control value class ([1]; Powdery mildew on barley): H (more than 50% control value)
Test F control value class (Phytophthora infestans; Late blight on tomato): L (50% or less control value)
Test B control value class (Botrytis cinerea; Gray mold on tomato): H (more than 50% control value)
Test E control value class (Puccinia recondita; [12]): H (more than 50% control value)
Test G control value class (Plasmopara viticola; 250 ppm spray): H (more than 50% control value)
Test H control value class ([2]; 250 ppm spray): H (more than 50% control value)
Test A control value class (Magnaporthe grisea; Blast on rice): H (more than 50% control value)

CCn1c(-c2ccc(Br)cc2F)c(CC(C)C)ccc1=O [compound 136]
Test C control value class (Alternaia brassicicola; [11]): L (50% or less control value)
Test D control value class ([1]; Powdery mildew on barley): H (more than 50% control value)
Test F control value class (Phytophthora infestans; Late blight on tomato): L (50% or less control value)
Test B control value class (Botrytis cinerea; Gray mold on tomato): H (more than 50% control value)
Test E control value class (Puccinia recondita; [12]): H (more than 50% control value)
Test G control value class (Plasmopara viticola; 250 ppm spray): H (more than 50% control value)
Test H control value class ([2]; 250 ppm spray): L (50% or less control value)
Test A control value class (Magnaporthe grisea; Blast on rice): H (more than 50% control value)

CCc1cc(Br)c(=O)n(CC)c1-c1c(F)cc(OC)cc1F [compound 391]
Test C control value (Alternaia brassicicola; [13]): H (more than 50% control value)
Test D control value [1, 13]: L (50% or less control value)
Test F control value (Phytophthora infestans; [13]): L (50% or less control value)
Test B control value (Botrytis cinerea; [13]): H (more than 50% control value)
Test E control value (Puccinia recondita; [13]): H (more than 50% control value)
Test G control value (Plasmopara viticola; [14]): L (50% or less control value)
Test H control value [2, 15]: H (more than 50% control value)
Test A control value (Magnaporthe grisea; [13]): H (more than 50% control value)

CCC(=O)c1cc(Cl)c(=O)n(CC)c1-c1c(F)cccc1F [Compound No. 26, 3-chloro-6-(2,6-difluorophenyl)-1-ethyl-5-propionylpyridin-2(1H)-one]
pest or weed control at 250 µg/mL (Alternaia brassicicola; Brassica oleracea, topical, Alternaria sooty spot on cabbage, class of control value, read-out: Test C control value class): > 50%
pest or weed control at 250 µg/mL ([1]; Blumeria graminis, in Hordeum vulgare, topical, read-out: Test D control value class): > 50%
pest or weed control at 250 µg/mL (Phytophthora infestans; Phytophthora infestans, in Solanum lycopersicum, topical, read-out: Test F control value class): < 50%
pest or weed control at 250 µg/mL (Botrytis cinerea; Botrytis cinerea, in Solanum lycopersicum, topical, read-out: Test B control value class): > 50%
pest or weed control at 250 µg/mL (Puccinia recondita; Puccinia recondita, topical, Brown rust on wheat, class of control value, read-out: Test E control value class): > 50%
pest or weed control at 250 ppm (Plasmopara viticola; read-out: Test G control value class): > 50%
pest or weed control at 250 ppm ([2]; read-out: Test H control value class): > 50%
pest or weed control at 250 µg/mL (Magnaporthe grisea; Pyricularia oryzae, in Oryza sativa, read-out: Test A control value class): > 50%

CCC(C)c1ccc(=O)n(CC)c1-c1c(F)cc(OC)cc1F (centres unmarked) [compound 34]
Test C control value class (Alternaia brassicicola; [11]): H (more than 50% control value)
Test D control value class ([1]; Powdery mildew on barley): H (more than 50% control value)
Test F control value class (Phytophthora infestans; Late blight on tomato): L (50% or less control value)
Test B control value class (Botrytis cinerea; Gray mold on tomato): H (more than 50% control value)
Test E control value class (Puccinia recondita; [12]): H (more than 50% control value)
Test G control value class (Plasmopara viticola; 250 ppm spray): H (more than 50% control value)
Test H control value class ([2]; 250 ppm spray): H (more than 50% control value)
Test A control value class (Magnaporthe grisea; Blast on rice): H (more than 50% control value)

CCCc1cc(Cl)c(=O)n(CC(F)F)c1-c1c(F)cc(F)cc1F [compound 471]
Test C control value (Alternaia brassicicola; [13]): H (more than 50% control value)
Test D control value [1, 13]: H (more than 50% control value)
Test F control value (Phytophthora infestans; [13]): L (50% or less control value)
Test B control value (Botrytis cinerea; [13]): H (more than 50% control value)
Test E control value (Puccinia recondita; [13]): H (more than 50% control value)
Test G control value (Plasmopara viticola; [14]): H (more than 50% control value)
Test H control value [2, 15]: H (more than 50% control value)
Test A control value (Magnaporthe grisea; [13]): H (more than 50% control value)

CCn1c(-c2ccc(OC)cc2Cl)c(CC(C)C)ccc1=O [compound 238]
Test C control value (Alternaia brassicicola; [16]): H (more than 50% control value)
Test D control value [1, 17]: H (more than 50% control value)
Test F control value (Phytophthora infestans; [18]): L (50% or less control value)
Test B control value (Botrytis cinerea; [19]): H (more than 50% control value)
Test E control value (Puccinia recondita; [20]): H (more than 50% control value)
Test G control value (Plasmopara viticola; [21]): H (more than 50% control value)
Test H control value [2, 22]: H (more than 50% control value)
Test A control value (Magnaporthe grisea; [23]): H (more than 50% control value)

CCC1=C(c2ccc(F)cc2Cl)N(C)C(=S)CC1 [compound 313]
Test C control value (Alternaia brassicicola; [16]): L (50% or less control value)
Test D control value [1, 17]: L (50% or less control value)
Test F control value (Phytophthora infestans; [18]): L (50% or less control value)
Test B control value (Botrytis cinerea; [19]): L (50% or less control value)
Test E control value (Puccinia recondita; [20]): L (50% or less control value)
Test G control value (Plasmopara viticola; [21]): H (more than 50% control value)
Test H control value [2, 22]: L (50% or less control value)
Test A control value (Magnaporthe grisea; [23]): L (50% or less control value)

CCn1c(-c2c(F)cc(F)cc2F)c(C(C)(F)C(C)C)cc(Cl)c1=O (racemic) [compound 166]
Test C control value class (Alternaia brassicicola; [11]): H (more than 50% control value)
Test D control value class ([1]; Powdery mildew on barley): H (more than 50% control value)
Test F control value class (Phytophthora infestans; Late blight on tomato): H (more than 50% control value)
Test B control value class (Botrytis cinerea; Gray mold on tomato): H (more than 50% control value)
Test E control value class (Puccinia recondita; [12]): H (more than 50% control value)
Test G control value class (Plasmopara viticola; 250 ppm spray): H (more than 50% control value)
Test H control value class ([2]; 250 ppm spray): H (more than 50% control value)
Test A control value class (Magnaporthe grisea; Blast on rice): H (more than 50% control value)

CCn1c(-c2ccc(O)cc2Cl)c(CC(C)C)cc(Cl)c1=O [compound 254]
Test C control value (Alternaia brassicicola; [16]): H (more than 50% control value)
Test D control value [1, 17]: L (50% or less control value)
Test F control value (Phytophthora infestans; [18]): H (more than 50% control value)
Test B control value (Botrytis cinerea; [19]): H (more than 50% control value)
Test E control value (Puccinia recondita; [20]): H (more than 50% control value)
Test G control value (Plasmopara viticola; [21]): L (50% or less control value)
Test H control value [2, 22]: H (more than 50% control value)
Test A control value (Magnaporthe grisea; [23]): L (50% or less control value)

CCn1c(-c2ccc(Cl)cc2Cl)c(CC(C)C)cc(Cl)c1=O [compound 139]
Test C control value class (Alternaia brassicicola; [11]): H (more than 50% control value)
Test D control value class ([1]; Powdery mildew on barley): H (more than 50% control value)
Test F control value class (Phytophthora infestans; Late blight on tomato): L (50% or less control value)
Test B control value class (Botrytis cinerea; Gray mold on tomato): H (more than 50% control value)
Test E control value class (Puccinia recondita; [12]): H (more than 50% control value)
Test G control value class (Plasmopara viticola; 250 ppm spray): H (more than 50% control value)
Test H control value class ([2]; 250 ppm spray): H (more than 50% control value)
Test A control value class (Magnaporthe grisea; Blast on rice): H (more than 50% control value)
